From patent US20040122089A1, “Novel eicosanoid analgesics” (priority 2001, published 2004)
Where two headings read alike, the source gives them in different places.

Experiments:
[1] = tested on: anandamide membrane transporter (AMT); type: cell-based, rat; settings: [14C]AEA uptake, RBL-2H3 cells
Procedure: (§1) The effect of compounds on the enzymatic hydrolysis of [^14C] AEA (6 μM) was studied by using membranes prepared from N18TG2 cells incubated with increasing concentrations of compounds in 50 mM Tris-HCL, pH 9, for 30 min at 37° C. [^14C] Ethanolamine produced from [^14C] AEA hydrolysis was quantified by scintillation spectroscopy and used to measure fatty acid amide hydrolase (FAAH) activity. The effect of compounds on the uptake of AEA by RBL-2H3 cells was studied with a procedure analogous to that described in Melck, ibid., and modified as described in Hilliard et al., J. Neurochem. 69:631-638 (1997). Cells were incubated with [^14C] AEA (4μM) for 5 min. at 37° C., in the presence or absence of varying concentrations of the inhibitors. Residual [1^4C] AEA in the incubation media after extraction with CHCl3/CH30H (2:1 by volume) was used as a measure of the AEA that was taken up by cells.
In consideration of the potent inhibition of the AMT previously observed with arvanil and its derivatives (see Melck, ibid), the seven compounds were also tested for their inhibitory effect on [^4C] […] Thus, the results in Table 1 confirm the existence of a partial overlap between the ligand recognition properties of VR1 receptors and the AMT (14.24).

AMT = type: cell-based, rat; settings: RBL-2H3 cells; read-out: AMT IC50
Procedure: AEA. Cells were incubated with [^14C] AEA for 5 min at 37° C., in the presence or absence of varying concentrations of the inhibitors. Residual [^14C] AEA in the incubation media after extraction with CHCl3/CH3OH 2:1 (by vol.), determined by scintillation counting of the lyophilized organic phase, was used as a measure of the AEA that was taken up by cells.
CP55940 from whole rat brain membranes.

CB2 receptors = biological target: T1, CB2 receptors (Rattus norvegicus, UniProt Q9QZN9); assay: CB2 binding, displacement of [3H]WIN55,212-2 from rat spleen membranes
T1 construct: rat spleen membranes, which contain mostly CB2 receptors; from tissue; host or cells: rat spleen membranes
T1 sequence (Q9QZN9 1-360): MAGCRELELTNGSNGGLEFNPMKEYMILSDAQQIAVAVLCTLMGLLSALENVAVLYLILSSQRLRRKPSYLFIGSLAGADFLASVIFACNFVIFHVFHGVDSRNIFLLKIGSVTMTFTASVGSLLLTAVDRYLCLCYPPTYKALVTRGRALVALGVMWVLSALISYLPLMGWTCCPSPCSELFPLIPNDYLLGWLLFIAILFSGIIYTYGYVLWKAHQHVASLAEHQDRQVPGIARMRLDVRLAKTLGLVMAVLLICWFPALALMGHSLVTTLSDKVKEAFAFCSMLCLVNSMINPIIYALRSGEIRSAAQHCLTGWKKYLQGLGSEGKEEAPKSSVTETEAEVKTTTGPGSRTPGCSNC
Procedure: (§2) For CB1 receptor binding, [^3H]CP-55,940 (Kd=[…]) was incubated with P2 membranes from whole rat brains as described in Compton et al., J. Pharm. Exp. Ther. 265:218-226 (1993). Displacement curves were generated by incubating drugs with 1 nM of [^3H]CP-55,940. The assays were performed in triplicate, and the results represent the combined data from three individual experiments. A separate set of experiments were conducted in which phenylmthylsulfonylfluoride (PMSF) was added at a concentration of 100 μm in order to prevent possible metabolism of the analogs. CB2 binding assays were performed as described in Melek et al., ibid. In all cases, Ki values were calculated applying the Cheng-Prusoff equation to the IC50 values (obtained by GraphPad) for the displacement of the bound radioligand by increasing concentrations of the test compounds.
(§3) In Table 1, affinity for CB1 and CB2 receptors was measured in displacement assays carried out using rat brain or spleen membranes and [^3H]CP 55,940 or […], respectively. Potency at human VR1 was established by measuring the stimulatory activity of the compounds on the Ca^2+ intracellular concentration in HEK cells transfected with cDNA encoding the human VR1 receptor. Efficacy at VR1 was measured by expressing the effect of a maximal concentration of each compound (usually 10 μM) as percent of the maximal possible effect obtained with 4 μM ionomycin. Data are means ±SEM of at least n=3 separate determinations. *Ki was determined in the presence of PMSF.
The hydroxy analog is much less CB1 vs. CB2 selective in both series.

human VR1 receptor = human VR1 receptor (Homo sapiens, UniProt Q8NER1); assay: Ca2+ influx (Fluo-3) in HEK-hVR1 cells (Example 2); type: cell-based; set-up: expressed in transfected cells; host or cells: HEK 293 cells (HEK-hVR1); settings: for VR1 efficacy: maximal concentration (usually 10 μM), percent of effect of 4 μM ionomycin
Procedure: N18TG2 and RBL-2H3 cells were grown as described in Melck et al, Bioch. Biophys. Res. Commun. 262:275-284 (1999). Ionomycin was purchased from Sigma. DMH-arvanil, and six substituted dimethylpentyl (DMP) derivatives of arvanil and met-AEA were synthesized as described in Example 1.
HEK-hVR1 cells were prepared and loaded as described in De Petrocellis, et al., FEBS Lett. 483:52-56 (2000). Experiments were carried out by measuring fluorescence at 25° C. […] Capsazepine (1-5 μM) was added 30 minu. Before the test compounds.
as §3

mice = assay: Mouse 'tetrad' of tests after i.v. administration (Example 2); settings: for ED50: Mus musculus, iv
CB1 receptors = CB1 receptors (Rattus norvegicus, UniProt P20272); assay: CB1 receptor binding, displacement of [3H]CP-55,940 from rat brain P2 membranes (Example 2); set-up: from tissue; host or cells: whole rat brain membranes; settings: for Ki: rat brain membranes
Procedure: as §2, §3

[2] = biological target: T2, fatty acid amide hydrolase (FAAH) (Mus musculus, UniProt O08914); assay: [14C]AEA hydrolysis by N18TG2 cell membranes; type: biochemical
T2 construct: membranes prepared from N18TG2 cells; endogenous in cells; host or cells: N18TG2 cell membranes
T2 sequence (O08914 1-579): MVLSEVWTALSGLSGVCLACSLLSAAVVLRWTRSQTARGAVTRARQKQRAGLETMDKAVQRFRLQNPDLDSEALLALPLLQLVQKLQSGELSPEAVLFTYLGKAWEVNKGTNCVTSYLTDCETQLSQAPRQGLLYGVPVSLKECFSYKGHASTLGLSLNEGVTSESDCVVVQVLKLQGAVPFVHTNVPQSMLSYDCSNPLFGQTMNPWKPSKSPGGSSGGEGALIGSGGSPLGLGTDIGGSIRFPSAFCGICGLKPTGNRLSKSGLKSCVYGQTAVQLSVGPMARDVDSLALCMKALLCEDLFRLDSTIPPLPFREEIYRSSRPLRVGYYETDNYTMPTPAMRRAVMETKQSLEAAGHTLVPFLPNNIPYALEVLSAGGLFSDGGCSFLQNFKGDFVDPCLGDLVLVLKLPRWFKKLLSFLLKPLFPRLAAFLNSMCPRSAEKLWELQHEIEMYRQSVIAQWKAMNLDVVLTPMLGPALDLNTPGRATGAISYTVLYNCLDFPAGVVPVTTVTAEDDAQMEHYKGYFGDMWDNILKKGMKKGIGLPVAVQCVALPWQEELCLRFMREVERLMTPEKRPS
Procedure: as §1
Accordingly, when the compounds were tested for their capability of inhibiting [^14C] […] This is in agreement with previous observations that Me-AEA, DMH-derivatives of AEA and arvanil are poor substrates for FAAH. The two exceptions were O-1856 and O-1895, which did inhibit the hydrolysis of [^14C] AEA, although not very potently.

[3] = read-out: Average ED50 for the four effects
[4] = read-out: R.I. (relative immobility) ED50
[5] = read-out: R.T. (rectal temperature) ED50
[6] = read-out: S.A. (spontaneous activity) ED50
[7] = read-out: T.F. (tail-flick) ED50
[8] = VR1 (EC50, nM), Ca2+ in HEK cells with human VR1
[9] = VR1 EC50, HEK cells with human VR1
[10] = CB1 (Ki, nM), determined in the presence of PMSF, [3H]CP 55,940, PMSF 100 μM
[11] = CB1 (Ki, nM), [3H]CP 55,940, without PMSF

Chain of human VR1 receptor (Q8NER1 whole entry): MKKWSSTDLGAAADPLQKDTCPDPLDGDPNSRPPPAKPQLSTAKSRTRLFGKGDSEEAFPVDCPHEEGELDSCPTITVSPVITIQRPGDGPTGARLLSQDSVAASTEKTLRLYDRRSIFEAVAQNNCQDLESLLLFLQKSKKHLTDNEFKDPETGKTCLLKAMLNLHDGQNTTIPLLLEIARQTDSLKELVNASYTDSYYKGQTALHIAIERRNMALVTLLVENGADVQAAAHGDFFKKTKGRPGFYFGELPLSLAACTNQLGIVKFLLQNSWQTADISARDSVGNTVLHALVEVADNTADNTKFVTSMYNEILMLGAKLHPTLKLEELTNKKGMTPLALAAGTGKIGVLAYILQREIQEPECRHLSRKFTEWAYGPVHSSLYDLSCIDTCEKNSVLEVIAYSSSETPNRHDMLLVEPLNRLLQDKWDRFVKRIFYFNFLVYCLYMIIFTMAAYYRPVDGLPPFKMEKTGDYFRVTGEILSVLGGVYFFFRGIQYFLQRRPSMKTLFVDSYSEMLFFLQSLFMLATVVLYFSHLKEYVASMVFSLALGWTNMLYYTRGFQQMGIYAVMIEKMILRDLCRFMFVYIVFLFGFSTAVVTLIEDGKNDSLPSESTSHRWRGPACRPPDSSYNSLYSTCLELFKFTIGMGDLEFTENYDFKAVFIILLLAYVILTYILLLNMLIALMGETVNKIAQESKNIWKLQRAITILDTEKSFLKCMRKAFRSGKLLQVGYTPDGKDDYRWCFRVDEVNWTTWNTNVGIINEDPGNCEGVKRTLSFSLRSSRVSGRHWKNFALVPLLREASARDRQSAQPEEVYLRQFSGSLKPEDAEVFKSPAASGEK
Chain of CB1 receptors (P20272 whole entry): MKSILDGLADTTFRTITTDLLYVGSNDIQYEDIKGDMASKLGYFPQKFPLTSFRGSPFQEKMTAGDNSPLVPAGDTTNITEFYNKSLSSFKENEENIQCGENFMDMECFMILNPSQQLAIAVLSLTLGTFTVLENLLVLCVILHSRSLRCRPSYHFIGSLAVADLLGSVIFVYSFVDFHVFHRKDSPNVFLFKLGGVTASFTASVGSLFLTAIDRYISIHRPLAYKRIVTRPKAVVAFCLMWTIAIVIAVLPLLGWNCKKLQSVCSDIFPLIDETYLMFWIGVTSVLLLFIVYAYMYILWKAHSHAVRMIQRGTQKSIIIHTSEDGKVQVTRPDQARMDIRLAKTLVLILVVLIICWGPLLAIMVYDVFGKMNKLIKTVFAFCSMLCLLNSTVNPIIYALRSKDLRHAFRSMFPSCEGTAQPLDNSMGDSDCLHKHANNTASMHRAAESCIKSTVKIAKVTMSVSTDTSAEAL

Row | SMILES | IC50 [1] | VR1 efficacy (human VR1 receptor) | ED50 (mice; [3]) | ED50 (mice; [4]) | ED50 (mice; [5]) | ED50 (mice; [6]) | ED50 (mice; [7]) | Ki (CB2 receptors) | EC50 (human VR1 receptor; [8]) | Ki (CB1 receptors; [10]) | Ki (CB1 receptors; [11]) | IC50 [2] | also measured
1 | CCCCC/C=C\C/C=C\C/C=C\C/C=C\CCCC(=O)Nc1ccc(O)cc1 [AM404, reference compound] | 8100 nM |  |  |  |  |  |  |  |  |  |  |  | IC50 (AMT): 8100 ± 2600 nM
2 | C[C@H](CO)NC(=O)CCC/C=C\C/C=C\C/C=C\C/C=C\C(C)(C)CCCCO [Compound O-1811, (R)-(16,16-Dimethyl-20-hydroxyeicosa-cis-5,8,11,14-tetraenoyl)-1′-hydroxy-2′-propylamine] | 42500 ± 3300 nM | 62.5 ± 0.8% | 0.773 mg/kg | 0.663 mg/kg | 0.188 mg/kg | 0.996 mg/kg | 1.24 mg/kg |  |  |  |  |  | Ki (CB2 receptors; rat spleen membranes, read-out: CB2 (Ki)): 800 ± 150 nM; EC50 (human VR1 receptor; Ca2+ in HEK cells with human VR1, read-out: VR1 (EC50)): 724 ± 99 nM; fold more potent in reducing body temperature than in increasing tail-flick latency (mice; mice, i.v.): approximately 10 fold; Ki (CB1 receptors; [3H]CP 55,940, PMSF 100 μM, read-out: CB1 (Ki, nM), determined in the presence of PMSF): 116 ± 11.1 nM; Ki (CB1 receptors; [3H]CP 55,940, without PMSF, read-out: CB1 (Ki)): 115 ± 25.2 nM; IC50 ([2]; [14C]AEA hydrolysis, N18TG2 cell membranes, read-out: FAAH (IC50)): > 50000 nM
3 | C[C@H](CO)NC(=O)CCC/C=C\C/C=C\C/C=C\C/C=C\C(C)(C)CCCCC#N [Compound O-1812, (R)-(20-cyano-16,16-Dimethyleicosa-cis-5,8,11,14-tetraenoyl)-1′-hydroxy-2′-propylamine] | 37000 ± 4500 nM | 50.0% | 0.025 mg/kg | 0.017 mg/kg | 0.05 mg/kg | 0.017 mg/kg | 0.014 mg/kg | 3870 ± 235 nM | 1950 ± 184 nM | 4.6 ± 0.4 nM | 3.4 ± 0.5 nM | > 50000 nM | EC50 (human VR1 receptor; [9]): 1900 nM; VR1 efficacy (human VR1 receptor; listed as 0-1812): 50.0 ± 1.6%; fold more potent on CB1 than on CB2 (CB1 receptors): 1000 fold; fold more potent on CB1 than on VR1 (CB1 receptors): 580 fold
4 | CCCCCCC(C)(C)/C=C\C/C=C\C/C=C\C/C=C\CCCC(=O)NCc1ccc(O)c(OC)c1 [Compound O-1839, 16,16-Dimethyl-docosa-5,8,11,14-all-cis-tetraenoic acid (4-hydroxy-3-methoxy-benzyl) amide] | 19300 ± 2300 nM | 71.9 ± 4.5% | 0.078 mg/kg |  | 0.08 mg/kg | 0.08 mg/kg | 0.074 mg/kg | > 10000 nM | 0.7 ± 0.08 nM | 201 ± 4.1 nM | 262 nM | > 50000 nM | 
5 | COc1cc(CNC(=O)CCC/C=C\C/C=C\C/C=C\C/C=C\C(C)(C)CCCCO)ccc1O [Compound O-1856, 16,16-Dimethyl-20-hydroxy-eicosa-5,8,11,14-all-cis-tetraenoic acid (4-hydroxy-3-methoxy-benzyl) amide] | 42000 nM | 83.9 ± 5.1% | 0.873 mg/kg | 0.76 mg/kg | 1.45 mg/kg | 0.47 mg/kg | 0.81 mg/kg | > 10000 nM | 5 ± 0.7 nM | 1070 ± 134 nM | 790 nM | 14500 ± 3400 nM | IC50 ([1]; listed as 0-1856): 40000 ± 3800 nM
6 | C[C@H](CO)NC(=O)CCC/C=C\C/C=C\C/C=C\C/C=C\C(C)(C)CCCCBr [Compound O-1860, (R)-(20-Bromo-16,16-Dimethyleicosa-cis-5,8,11,14-tetraenoyl)-1′-hydroxy-2′-propylamine] | 40000 ± 4500 nM | 50.0% | 0.388 mg/kg | 0.43 mg/kg | 0.44 mg/kg | 0.39 mg/kg | 0.29 mg/kg | > 10000 nM | 371 ± 34 nM | 1 ± 0.1 nM | 2.2 nM | > 50000 nM | EC50 (human VR1 receptor; [9]): 370 nM; VR1 efficacy (human VR1 receptor; listed as 0-1860): 62.1 ± 5.7%
7 | COc1cc(CNC(=O)CCC/C=C\C/C=C\C/C=C\C/C=C\C(C)(C)CCCCC#N)ccc1O [Compound O-1895, 20-Cyano-16,16-dimethyl-eicosa-5,8,11,14-all-cis-tetraenoic acid (4-hydroxy-3-methoxy-benzyl) amide] | 38400 ± 3100 nM | 83.1 ± 6.1% | 0.219 mg/kg | 0.168 mg/kg | 0.179 mg/kg | 0.265 mg/kg | 0.263 mg/kg | 5000 ± 850 nM | 1 ± 0.2 nM | 44.8 ± 8.3 nM | 67 ± 7.5 nM | 18000 ± 2700 nM | 
